From patent US12721823B2, “Methods and compositions for treatment of low circulating testosterone conditions” (University of Florida Research Foundation, Inc., priority 2021, dated 2026)

Legend:
Sprague-Dawley rats = assay: Serum FSH, LH, testosterone (Tn), estradiol (E2) by ELISA and testis weight; format: in vivo, rat
Source text: Sixty-four G1 rats (32 control and 32 sevoflurane exposed) and 122 G2 rats, which were not exposed to sevoflurane anesthesia and were subjected to animal facility rearing only, were studied. The G1 rats were sequentially evaluated in the EPM starting on ~P125, PPI of the acoustic startle response on ~P135 and MWM starting ~on P145 (FIG. 1). One half of these animals were sacrificed on ≥P160 to collect trunk blood, brain and testis and ovarian tissues for further analyses. The rest of these animals were physically restrained for 30 min on ≥P160 to measure corticosterone responses, followed by collection of tissue samples (as above) for further analyses. The G2 rats were evaluated in the EPM starting on P60 and PPI of startle on P70 (FIG. 1). One half of these animals were sacrificed on ≥P95 to collect trunk blood and brain tissue samples for further analyses, and the rest of these animals were tested for the corticosterone responses to physical restraint for 30 min on ≥P95 before collecting the trunk blood and brain tissue samples. After decapitation, the trunk blood samples were collected and centrifuged at 4° C., 1000 g for 15 min, and then kept at -80° C. for hormone assays. The brain was removed from the skull onto ice pads. The hypothalamus was isolated by making an anterior cut at the level of the optic chiasm, a posterior coronal section anterior to the mammillary bodies, two sagittal cuts parallel to the lateral ventricles and a dorsal horizontal cut at the level of the anterior commissure, as described elsewhere.^19 The hippocampus was isolated from the respective blocks. All tissue samples were placed in vials filled with RNAlater solution (Invitrogen, Carlsbad, CA) and then stored at -80° C. Testis tissue was removed and washed with 0.9% saline before weighing. Sperm were isolated from the caudal epididymis of adult males into PBS with 1% BSA at 37° C. using a swim-up assay. After settling for 30 min, sperm-containing supernatant was centrifuged for 5 min at 4000 rpm. Sperm pellets were stored at -80° C. After separation from the adipose tissues, ovaries were stored at -80° C. Hormone analyses in serum samples isolated from G1 and G2 rats were performed using commercially available kits according to the manufacturer's instructions. Serum concentrations of FSH (CSB-E06869r) and LH (CSB-E12654r) were quantified using ELISA kits (CUSABIO TECHNOLOGY LLC, Houston, TX, USA). Serum Tn and E2 concentrations were measured using ELISA kits (582701, Cayman Chemical Company, Ann Arbor, MI, USA and E[…]-100, Calbiotech, Spring Valley, CA, USA, respectively).

[1] = test system: Crh, Grs, Erα, Erβ, aromatase, Gnrh, Nkcc1 and Kcc2 mRNA; assay: qRT-PCR of mRNA levels in hypothalamus and hippocampus; format: in vivo, rat
Method: Levels of mRNA for Nkcc1 and Kcc2 in the hypothalamus and hippocampus, for Crh, Erα, Erβ, aromatase, GnRH in the hypothalamus, and for Grs in the hippocampus were analyzed via reverse transcription-PCR (qRT-PCR) in a StepOnePlus™ Real-Time PCR System (Applied Biosystems, Foster City, CA) as previously described. 5 RNA was extracted from the samples using an RNeasy Plus Kit (Qiagen, Valencia, CA), reverse transcribed with a high-capacity cDNA reverse transcription kit (Bio-Rad Laboratories, Hercules, CA), and then analyzed via qRT-PCR. Taqman probes specific for the above genes were obtained from Applied Biosystems (Carlsbad, CA): Crh (Rn01462137_m1), Gr (Rn00561369_m1), Erα (Rn01430446_m1), Erβ (Rn00562610_m1), aromatase (Rn00567222_m1), Gnrh (Rn00562754_m1), Nkcc1 (Rn00582505_m1) and Kcc2 (Rn00592624_m1). Data were normalized to glyceraldehyde-3-phosphate dehydrogenase (Gapdh) mRNA (Rn01775763_g1). Gene expression was calculated using the ΔΔCT method and data are presented as relative fold change from that of control animals.

[2] = G2 males, parental exposure to sevoflurane
[3] = G1 female rats, control vs sevoflurane-exposed
[4] = G1 female rats, more than 3 months after exposure
[5] = G1 male rats, more than 3 months after exposure
[6] = G2 female rats, parental sevoflurane exposure
[7] = G2 females, parental sevoflurane exposures
[8] = G2 males, all four treatment groups

testis weight (Sprague-Dawley rats; G1 male rats, vs control): significantly reduced
testis weight (Sprague-Dawley rats; [2]): no significant treatment effects
hippocampal Kcc2 mRNA levels [1, 3]: similar
hippocampal Nkcc1 mRNA levels [1, 3]: similar
Kcc2 mRNA levels in the hypothalamus [1, 4]: unaltered
Nkcc1 mRNA levels in the hypothalamus [1, 4]: unaltered
hypothalamic levels of Erα mRNA ([1]; G1 female rats, vs control): not different
hypothalamic levels of Erβ mRNA ([1]; G1 female rats, vs control): slightly, though significantly increased
hypothalamic levels of Gnrh mRNA ([1]; G1 female rats, vs control): no significant treatment effects
increase in hypothalamic aromatase mRNA ([1]; G1 female rats, vs control): did not achieve statistical significance
hypothalamic Crh mRNA levels ([1]; G1 male rats, 2 hours after the restraint, vs control): increased
Kcc2 mRNA levels in the hippocampus [1, 5]: significantly reduced
Kcc2 mRNA levels in the hypothalamus [1, 5]: decreased
Nkcc1 mRNA levels in the hippocampus [1, 5]: but not Nkcc1 mRNA levels
Nkcc1 mRNA levels in the hypothalamus [1, 5]: normal
Gr mRNA in the hippocampus ([1]; G1 male rats, vs control): reduced
hypothalamic levels of Era mRNA ([1]; G1 male rats, vs control): increased
hypothalamic levels of Erβ mRNA ([1]; G1 male rats, vs control): decreased
hypothalamic levels of Gnrh mRNA ([1]; G1 male rats, vs control): increased
hypothalamic levels of aromatase mRNA ([1]; G1 male rats, vs control): significantly increased
hippocampal Gr mRNA levels [1, 6]: no significant between-subjects effects
hypothalamic Crh mRNA [1, 6]: no significant between-subjects effects
Kcc2 mRNA level in the hippocampus [1, 7]: not significant
Kcc2 mRNA levels in the hypothalamus [1, 7]: not significant
Nkcc1 mRNA level in the hippocampus [1, 7]: not significant
Nkcc1 mRNA levels in the hypothalamus [1, 7]: not significant
hippocampal Kcc2 mRNA levels ([1]; G2 male offspring of both exposed parents): reduced
hippocampal Kcc2 mRNA levels ([1]; G2 male offspring of exposed fathers and control mothers): reduced
hypothalamic Kcc2 mRNA levels ([1]; G2 male progeny of sevoflurane exposed fathers and mothers, vs offspring of control parents): lower levels
Crh mRNA in the hypothalamus [1, 8]: not different
Gr mRNA levels in the hippocampus [1, 8]: not different
Nkcc1 mRNA levels in the hippocampus ([1]; G2 males, parental sevoflurane exposure): no significant effects
Structure (SMILES): FCOC(C(F)(F)F)C(F)(F)F [sevoflurane, 1,1,1,3,3,3-hexafluoro-2-(fluoromethoxy)propane]
serum levels of E2 (estradiol) (Sprague-Dawley rats; G1 female rats, vs control): not different
serum levels of FSH (Sprague-Dawley rats; G1 female rats, vs control): no significant treatment effects
serum levels of LH (Sprague-Dawley rats; G1 female rats, vs control): no significant treatment effects
serum levels of Tn (testosterone) (Sprague-Dawley rats; G1 female rats, vs control): not different
serum levels of Tn (testosterone) (Sprague-Dawley rats; G1 male rats, more than 3 months after sevoflurane exposure, vs control): significantly increased
serum levels of FSH (Sprague-Dawley rats; G1 male rats, vs control): not different
serum levels of LH (Sprague-Dawley rats; G1 male rats, vs control): increased
serum levels of Tn (Sprague-Dawley rats; [2]): no significant treatment effects
hippocampal Gr mRNA levels ([1]; G1 female rats, vs control): Neither hypothalamic Crh mRNA levels (FIG. 4C) nor hippocampal GrmRNA levels (FIG. 4D) were different
hypothalamic Crh mRNA levels ([1]; G1 female rats, vs control): Neither hypothalamic Crh mRNA levels (FIG. 4C) nor hippocampal GrmRNA levels (FIG. 4D) were different
